Legend:
Experiment in all cases: Test B pre-/postemergence plant response
Assay type in all cases: in vivo
[1] = test system: blackgrass (Alopecurus myosuroides)
Method in brief: (§1)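 Pre-em in loam/sand; post-em at 1–4 leaf (2–18 cm) in peat mix. Solvent + surfactant formulation. Greenhouse 13–15 d; visual % control vs untreated, 0–100.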

[2] = test system: johnsongrass (Sorghum halepense)
Method in brief: as §1

[3] = test system: green foxtail (Setaria viridis)
Method in brief: as §1

[4] = test system: giant foxtail (Setaria faberii)
Method in brief: as §1

[5] = test system: ragweed (common ragweed, Ambrosia elatior)
Method in brief: as §1

[6] = test system: morningglory (Ipomoea coccinea)
Method in brief: as §1

[7] = test system: soybean (Glycine max)
Method in brief: as §1

[8] = test system: velvetleaf (Abutilon theophrasti)
Method in brief: as §1

[9] = test system: Italian ryegrass (Lolium multiflorum)
Method in brief: as §1

[10] = test system: corn (Zea mays)
Method in brief: as §1

[11] = test system: cocklebur (Xanthium strumarium)
Method in brief: as §1

[12] = test system: goosegrass (Eleusine indica)
Method in brief: as §1

[13] = test system: kochia (Kochia scoparia); conditions: Postemergence; for Plant response rating, Kochia: scale 0 (no effect) to 100 (complete control); for Kochia plant response rating: 250 g ai/ha, scale 0 to 100
Method in brief: as §1

[14] = test system: large crabgrass (Digitaria sanguinalis)
Method in brief: as §1

[15] = 250 g ai/ha, Preemergence, 0 to 100 scale
[16] = Postemergence, 31 g ai/ha, scale 0 to 100 (0 no effect, 100 complete control)
[17] = Postemergence, 62 g ai/ha, scale 0 (no effect) to 100 (complete control), 13 to 15 days
[18] = Postemergence, 125 g ai/ha, visual rating after 13 to 15 days, scale 0 (no effect) to 100 (complete control)
[19] = Postemergence, 250 g ai/ha, scale 0 to 100
[20] = Preemergence, 31 g ai/ha, scale 0 to 100 (0 no effect, 100 complete control)
[21] = Preemergence, 62 g ai/ha, scale 0 to 100 (0 no effect, 100 complete control)
[22] = Preemergence, 125 g ai/ha, 0 to 100 scale
[23] = 125 g ai/ha, visual rating after 13 to 15 days

Cc1c(Cl)cccc1-n1c(-c2ccccc2)ncc(C(=O)C2=C(O)CCCC2=O)c1=O [Compound 40]
80: Plant response rating, Johnsongrass [2, 21] | Foxtail, Giant plant response rating [4, 22] | Plant response rating, Velvetleaf [8, 20] | Plant response rating, Corn [10, 16] | Plant response rating, Corn [10, 17] | Plant response rating, Goosegrass [12, 20]
90: Plant response rating, Johnsongrass [2, 15] | Plant response rating, Foxtail, Green [3, 16] | Ragweed plant response rating [5, 22] | Corn plant response rating [10, 19] | Plant response rating, Goosegrass [12, 17]
65: Plant response rating, Foxtail, Giant [4, 21] | Plant response rating, Morningglory [6, 15] | Plant response rating, Cocklebur [11, 20]
70: Plant response rating, Soybean [7, 15] | Plant response rating, Crabgrass, Large [14, 20]
15: Blackgrass plant response rating [1, 19]
100: Johnsongrass plant response rating [2, 19] | Plant response rating, Foxtail, Green [3, 15] | Plant response rating, Foxtail, Giant [4, 16] | Plant response rating, Foxtail, Giant [4, 17] | Plant response rating, Foxtail, Giant [4, 18] | Foxtail, Giant plant response rating [4, 19] | Plant response rating, Soybean [7, 17] | Plant response rating, Soybean [7, 18] | Plant response rating, Velvetleaf [8, 15] | Plant response rating, Velvetleaf [8, 17] | Plant response rating, Velvetleaf [8, 18] | Velvetleaf plant response rating [8, 22] | Plant response rating, Cocklebur [11, 15] | Plant response rating, Goosegrass [12, 15] | Goosegrass plant response rating [12, 22] | Plant response rating, Crabgrass, Large [14, 15] | Plant response rating, Crabgrass, Large [14, 18] | Crabgrass, Large plant response rating [14, 19] | Crabgrass, Large plant response rating [14, 22]
10: Plant response rating, Blackgrass [1, 17] | Plant response rating, Blackgrass [1, 18] | Plant response rating, Johnsongrass [2, 20] | Plant response rating, Foxtail, Giant [4, 20] | Plant response rating, Kochia [13, 23]
95: Plant response rating, Foxtail, Green [3, 17] | Plant response rating, Foxtail, Green [3, 18] | Foxtail, Green plant response rating [3, 19] | Plant response rating, Ragweed [5, 15] | Plant response rating, Goosegrass [12, 18]
85: Johnsongrass plant response rating [2, 22] | Plant response rating, Foxtail, Green [3, 21] | Foxtail, Green plant response rating [3, 22] | Plant response rating, Corn [10, 18] | Cocklebur plant response rating [11, 22] | Plant response rating, Crabgrass, Large [14, 16]
0: Plant response rating, Blackgrass [1, 16] | Plant response rating, Blackgrass [1, 20] | Plant response rating, Blackgrass [1, 21] | Blackgrass plant response rating [1, 22] | Plant response rating, Foxtail, Green [3, 20] | Plant response rating, Morningglory [6, 20] | Plant response rating, Morningglory [6, 21] | Morningglory plant response rating [6, 22] | Plant response rating, Soybean [7, 20] | Plant response rating, Ryegrass, Italian [9, 17] | Plant response rating, Ryegrass, Italian [9, 18] | Plant response rating, Ryegrass, Italian [9, 20] | Plant response rating, Corn [10, 15] | Plant response rating, Corn [10, 20] | Plant response rating, Corn [10, 21] | Corn plant response rating [10, 22] | Plant response rating, Kochia ([13]; 62 g ai/ha, 13 to 15 days)
98: Plant response rating, Foxtail, Giant [4, 15] | Plant response rating, Ragweed [5, 17] | Plant response rating, Ragweed [5, 18] | Goosegrass plant response rating [12, 19] | Plant response rating, Crabgrass, Large [14, 17] | Plant response rating, Crabgrass, Large [14, 21]
5: Plant response rating, Blackgrass [1, 15] | Plant response rating, Ryegrass, Italian [9, 15] | Ryegrass, Italian plant response rating [9, 22]
20: Soybean plant response rating [7, 22]
75: Plant response rating, Johnsongrass [2, 18] | Plant response rating, Ragweed [5, 20] | Plant response rating, Morningglory [6, 18] | Kochia plant response rating [13]

CCCCc1ncc(C(=O)C2=C(O)CCCC2=O)c(=O)n1-c1ccccc1 [Compound 42]
40: Plant response rating, Johnsongrass [2, 18]
100: Plant response rating, Goosegrass [12, 15] | Goosegrass plant response rating [12, 22] | Plant response rating, Kochia ([13]; 62 g ai/ha, 13 to 15 days) | Plant response rating, Kochia [13, 23] | Kochia plant response rating [13] | Plant response rating, Crabgrass, Large [14, 15]
50: Plant response rating, Foxtail, Green [3, 16] | Plant response rating, Goosegrass [12, 20]
55: Plant response rating, Foxtail, Green [3, 17]
60: Plant response rating, Foxtail, Green [3, 18]
25: Ragweed plant response rating [5, 22]
45: Plant response rating, Foxtail, Giant [4, 16] | Corn plant response rating [10, 19] | Plant response rating, Cocklebur [11, 17] | Plant response rating, Crabgrass, Large [14, 20]
10: Plant response rating, Blackgrass [1, 17] | Johnsongrass plant response rating [2, 22] | Plant response rating, Foxtail, Giant [4, 15] | Foxtail, Giant plant response rating [4, 22] | Plant response rating, Ryegrass, Italian [9, 18] | Plant response rating, Corn [10, 17]
65: Plant response rating, Johnsongrass [2, 15] | Johnsongrass plant response rating [2, 19] | Plant response rating, Foxtail, Green [3, 20] | Plant response rating, Foxtail, Green [3, 21] | Plant response rating, Foxtail, Giant [4, 17]
70: Plant response rating, Morningglory [6, 17] | Plant response rating, Crabgrass, Large [14, 16]
95: Plant response rating, Soybean [7, 18] | Plant response rating, Velvetleaf [8, 18] | Cocklebur plant response rating [11, 19] | Goosegrass plant response rating [12, 19] | Crabgrass, Large plant response rating [14, 22]
20: Blackgrass plant response rating [1, 19] | Plant response rating, Corn [10, 18]
90: Plant response rating, Soybean [7, 17] | Plant response rating, Velvetleaf [8, 15] | Plant response rating, Goosegrass [12, 18] | Crabgrass, Large plant response rating [14, 19]
75: Plant response rating, Foxtail, Giant [4, 18] | Plant response rating, Ragweed [5, 17] | Plant response rating, Morningglory [6, 18] | Plant response rating, Velvetleaf [8, 20] | Plant response rating, Crabgrass, Large [14, 17]
0: Plant response rating, Blackgrass [1, 20] | Plant response rating, Blackgrass [1, 21] | Blackgrass plant response rating [1, 22] | Plant response rating, Johnsongrass [2, 17] | Plant response rating, Johnsongrass [2, 20] | Plant response rating, Johnsongrass [2, 21] | Plant response rating, Foxtail, Giant [4, 20] | Plant response rating, Foxtail, Giant [4, 21] | Plant response rating, Ragweed [5, 20] | Plant response rating, Morningglory [6, 15] | Plant response rating, Morningglory [6, 20] | Plant response rating, Morningglory [6, 21] | Morningglory plant response rating [6, 22] | Plant response rating, Soybean [7, 15] | Plant response rating, Soybean [7, 20] | Soybean plant response rating [7, 22] | Plant response rating, Ryegrass, Italian [9, 15] | Plant response rating, Ryegrass, Italian [9, 20] | Ryegrass, Italian plant response rating [9, 22] | Plant response rating, Corn [10, 15] | Plant response rating, Corn [10, 16] | Plant response rating, Corn [10, 20] | Plant response rating, Corn [10, 21] | Corn plant response rating [10, 22] | Plant response rating, Cocklebur [11, 16] | Plant response rating, Cocklebur [11, 20] | Plant response rating, Cocklebur [11, 21]
15: Plant response rating, Blackgrass [1, 18]
85: Plant response rating, Foxtail, Green [3, 15] | Foxtail, Green plant response rating [3, 19] | Foxtail, Green plant response rating [3, 22] | Foxtail, Giant plant response rating [4, 19] | Plant response rating, Ragweed [5, 18] | Velvetleaf plant response rating [8, 22] | Plant response rating, Cocklebur [11, 18] | Plant response rating, Goosegrass [12, 17] | Plant response rating, Crabgrass, Large [14, 18] | Plant response rating, Crabgrass, Large [14, 21]
80: Plant response rating, Ragweed [5, 15] | Plant response rating, Velvetleaf [8, 17]
5: Plant response rating, Blackgrass [1, 15] | Plant response rating, Blackgrass [1, 16] | Plant response rating, Ryegrass, Italian [9, 17]

Source: patent publication US8952024B2, “Herbicidal pyrimidone derivatives” (E I du Pont de Nemours and Company, priority 2009, dated 2015)
